From patent publication US10954269B2, “Anti-inflammatory tripeptides” (Dr. August Wolff Gmbh & Co. KG Arzneimittel, priority 2013, dated 2021)
Where a SMILES comes first, the peptide text is derived from it. [ ]: non-standard residue; d: D form. Tle = CC(C)(C)[C@H](N)C(=O)O; Aib = CC(C)(N)C(=O)O

Columns and labels:
primary human T-cells = experiment: Cytokine secretion on protein level in activated primary human T-cells (13-plex FACS / Luminex, supernatant); type: cell-based; conditions: human T cells; PMA/Ionomycin; Luminex; all tested concentrations
How it was run: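 Cytokine protein in supernatant is read by multiplex FACS or Luminex. Tripeptide-treated HaCaT cells or blood-derived human T-cells are stimulated beforehand with PMA/Ionomycin or IFN-γ. The most relevant analytes are IL-1, IL-2, IL-6, IL-12p70, IL-17, IFN-γ and TNF-α, sampled 48 h and 72 h after stimulation.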

[1] = test system: human keratinocyte cell line (HaCaT); experiment: Cytokine secretion on protein level in activated human keratinocyte cell line HaCaT (13-plex FACS / Luminex, supernatant); type: cell-based; conditions: HaCaT; PMA/Ionomycin; Luminex; all tested concentrations
How it was run: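 First, T-cells are isolated from healthy donors' blood. Next, they and HaCaT keratinocytes are activated for 48 h with PMA/Ionomycin or IFN-γ in the presence of tripeptides. Finally, secreted cytokines are quantified in supernatants by 13-plex FACS at 48 and 72 h.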

primary murine T-cells = experiment: Cytokine secretion on protein level in activated primary murine T-cells (13-plex FACS / Luminex, supernatant); type: cell-based, C57BL/6 mice; conditions: murine T cells; PMA/Ionomycin; Luminex; all tested concentrations
How it was run: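 T-cells from secondary lymphatic organs of naïve C57BL/6 mice, stimulated with PMA/Ionomycin or IFN-γ; supernatant cytokines measured by 13-plex FACS 48 h and 72 h after stimulation. In another run, PMA/Ionomycin-stimulated cells received compounds at 10^−7, 10^−9 and 10^−11 M, with IFN-γ, IL-17 and IL-10 measured by Luminex.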

primary human T cells = experiment: Gene expression of pro-inflammatory cytokines (RT-qPCR) in primary human T cells; type: cell-based; conditions: PMA/Ionomycin, 10^−7 M, 10^−9 M and 10^−11 M
Text: (§1) Cells were activated with PMA/Ionomycin and treated with PBS, α-MSH, K(D)PT and Examples 3, 8 and 9, respectively, at a concentration of 10^−9 M. Values are normalized to β-actin and are shown relative to the gene expression in PBS-stimulated cells.
(§2) Primary T-cells were isolated from peripheral blood from healthy volunteers and from secondary lymphatic organs from naïve C57BL/6 mice, respectively. The cells were stimulated with phorbol-12-myristate-13-acetate (PMA)/Ionomycin and interferon-gamma (IFN-γ), respectively, for 48 h to activate the cells. The activated cells release pro-inflammatory cytokines. In parallel a human (HaCaT) keratinocyte cell line was activated with PMA/Ionomycin and IFN-γ, respectively, too. […] At the same time release of anti-inflammatory IL-10 was inhibited. Two days after addition of PMA/Ionomycin and IFN-γ, respectively, the induction of IL-1 secretion was determined in the supernatant for proving that the cells are activated. […] The anti-inflammatory properties of the tripeptides were determined 48 h and 72 h following stimulation. A 13-plex-system based FACS analysis was used for showing the reduced secretion of pro-inflammatory cytokines in the supernatant. Data for IL-1, IL-2, IL-6, IL-12p70 IL-17, IFN-γ and TNF-α are considered to be most relevant. Thus, analysis of the anti-inflammatory properties of the tripeptides is preferably based on the results obtained for these analytes. […] Using this method the gene expression of pro-inflammatory markers like IL-6, IL-17, IFN-γ and TNF-α was determined.
(§3) In a third experiment murine and human T cells and HaCaT cells were stimulated with PMA/Ionomycin and treated with Examples 14, 15, 16 and 17 at 10^−7 M, 10^−9 M and 10^−11 M. Cytokine concentrations (IFN-γ, IL-17 and IL-10 for T cells and IFN-γ for HaCat) were assessed in the supernatants using the Luminex technology. Expression of genes coding for Il-1β, IL-6 and TNF-α was determined. […] Moreover, concentrations of pro-inflammatory cytokines IFN-γ and IL-17 was reduced in the supernatants whereas the concentration of anti-inflammatory cytokine IL-10 was increased.

[2] = test system: human keratinocytes (HaCaT); experiment: Gene expression of pro-inflammatory cytokines (RT-qPCR) in human keratinocytes (HaCaT); type: cell-based; conditions: HaCaT cells; PMA/Ionomycin; 10^−7 M, 10^−9 M and 10^−11 M
Text: as §1, §2, §3

primary murine T cells = experiment: Gene expression of pro-inflammatory cytokines (RT-qPCR) in primary murine T cells; type: cell-based, C57BL/6 mice; conditions: PMA/Ionomycin, 10^−7 M, 10^−9 M and 10^−11 M
Text: as §1, §2, §3

Balb/c mice = experiment: Imiquimod-induced psoriasis in mice; type: in vivo; conditions: i.v.; for mRNA expression of IFN-γ and IL-36 in lesional skin: compared to vehicle control; for clinical score: day 9
Experimental: Psoriasis in Balb/c mice is induced by daily application of topical Imiquimod for 8 days. Animal are treated with the test items (topical or systemically). On day 9 the skin phenotype is characterized using a clinical score system (0=normal mouse skin; 1=mild reddening; 2=erythema; 3=erythema, swelling; 4=erythema, swelling, scaling; 5=erythema, swelling, scaling, (bloody) lesions). Skin is analyzed histologically. Lymph nodes are analyzed by flow cytometry and RT-qPCR. mRNA expression in lesional skin is analyzed by RT-qPCR. Cytokine concentrations in the serum are assessed using the Luminex technology.

in vitro = conditions: human, tissue homogenate, % of the starting concentration
Experimental: (§4) Human skin samples (ear skin, umbilical skin and juvenile foreskin) are combined and frozen in liquid nitrogen and homogenized. The resulting human skin homogenate is transferred portionwise (50-70 mg) to Protein LoBind Tubes (2 ml) and stored at −32° C. until use. At the beginning of the stability study the human skin homogenate is thawed. An aqueous solution of the tripeptide compound (1500 μl) with or without 0.02% sodium azide (cpeptide=160 μg/ml) is added and the mixture is incubated at 32° C. Samples were taken at 0, 30, 100, 300 and 1000 minutes. 100 μl sample are diluted with 1900 μl methanol containing an internal standard and analyzed with HPLC-MS. All analyses are performed in triplicate.

[3] = human, tissue homogenate, 1000 min, 160 μg/ml
Experimental: as §4

Row | Compound | concentration of anti-inflammatory cytokine IL-10 in the supernatants (primary human T-cells) | concentrations of pro-inflammatory cytokines IFN-γ and IL-17 in the supernatants (primary human T-cells) | concentration of pro-inflammatory cytokine IFN-γ in the supernatants [1] | concentration of anti-inflammatory cytokine IL-10 in the supernatants (primary murine T-cells) | concentrations of pro-inflammatory cytokines IFN-γ and IL-17 in the supernatants (primary murine T-cells) | expression of pro-inflammatory cytokines IL-1β, IL-6 and TNF-α on mRNA level (primary human T cells) | expression of pro-inflammatory cytokines IL-1β, IL-6 and TNF-α on mRNA level [2] | expression of pro-inflammatory cytokines IL-1β, IL-6 and TNF-α on mRNA level (primary murine T cells) | concentrations of TNF-α and IL-17 in the serum (Balb/c mice) | epidermal thickness (Balb/c mice) | mRNA expression of IFN-γ and IL-36 in lesional skin (Balb/c mice) | clinical score (Balb/c mice) | remaining at 5 h, 160 μg/ml (in vitro) | % of the starting concentration [3] | remaining at 1000 min, 160 μg/ml (in vitro)
1 | N^α,N^α-dimethyl-(L)-Phe-(t)-Pro-Aib-OH [Example 17] | increased | reduced | reduced | increased | reduced | reduced expression | reduced expression | reduced expression | reduced | reduced | reduced | reduced | – | – | –
2 | N^α-methyl-(D)-Phe-(L)-Pro-Aib-OH [Example 14] | increased | reduced | reduced | increased | reduced | reduced expression | reduced expression | reduced expression | reduced | reduced | reduced | reduced | – | – | –
3 | CC(C)(C)[C@H](NC(=O)[C@@H]1CCCN1C(=O)[C@@H](N)CCCCN)C(=O)O [Example 9, H-(L)-Lys-(L)-Pro-(L)-t-butyl-Gly-OH] (H-Lys-Pro-[Tle]-OH) | – | – | – | – | – | – | – | – | – | – | – | – | 58% | – | –
4 | H-[dF]-Pro-[Aib]-OH [Example 15] | increased | reduced | reduced | increased | reduced | reduced expression | reduced expression | reduced expression | reduced | reduced | reduced | reduced | – | – | –
5 | N^α,N^α-dimethyl-(L)-Nle-(L)-Pro-Aib-OH [Example 16] | increased | reduced | reduced | increased | reduced | reduced expression | reduced expression | reduced expression | reduced | reduced | reduced | reduced | – | – | –
6 | CC(C)(NC(=O)[C@@H]1CCCN1C(=O)[C@@H](N)CCCCN)C(=O)O [Example 8, H-(L)-Lys-(L)-Pro-Aib-OH] (H-Lys-Pro-[Aib]-OH) | – | – | – | – | – | – | – | – | – | – | – | – | – | 47% | 40%
